# Values joined by “and” are separate entries in the source; they are usually repeats but may differ in a detail not shown here. Identical values can stand only once. “Also recorded” adds a separate entry of the source. Like-named read-outs stand apart in the source and are kept apart here.
# How the values were obtained:
# A2BAR [1] = biological target: T1, A2BAR (Homo sapiens, UniProt P29275); assay: GloSensor cAMP luminescence assay in HEK293G cells, endogenous A2BAR-mediated responses (NECA, adenosine, BAY 60-6583); assay type: cell-based; settings: for antagonism of the response to BAY 60-6583 (in words): 1 μM BAY 60-6583; for inhibition of the response to 10 µM NECA (in words) / IC50 / pIC50: 30 min pre-incubation; for inhibition of the response to 10 µM NECA (in words): antagonist up to 10 µM; for mode of antagonism (in words): agonist concentration-response curves with increasing antagonist; for -Log KB / Kb: apparent KB, modified Gaddum equation
# T1 construct: Gs-coupled A2BARs endogenously expressed in HEK293 cells; host or cells: HEK293G (HEK293 stably expressing the GloSensor 20F cAMP biosensor)
# T1 sequence (P29275 1-332): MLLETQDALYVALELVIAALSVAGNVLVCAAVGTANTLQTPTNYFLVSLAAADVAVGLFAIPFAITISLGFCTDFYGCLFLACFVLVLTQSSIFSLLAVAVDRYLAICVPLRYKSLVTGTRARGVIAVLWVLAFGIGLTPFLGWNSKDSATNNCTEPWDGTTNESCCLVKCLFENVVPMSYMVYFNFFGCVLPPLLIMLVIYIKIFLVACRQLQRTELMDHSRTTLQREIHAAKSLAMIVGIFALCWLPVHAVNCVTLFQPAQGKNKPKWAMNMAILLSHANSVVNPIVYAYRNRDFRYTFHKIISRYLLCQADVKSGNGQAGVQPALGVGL
# Procedure: (§1) The cAMP GloSensor™ (20F) biosensor [26] expressed in HEK293 (HEK293G) cells was obtained from Promega (Madison, WI). HEK293G cells were maintained in Dulbecco modified eagles medium (DMEM) supplemented with 2 mM L-glutamine, 10% FCS (fetal calf serum) and 200 μg/ml hygromycin B at 37 °C 5% CO2. […] For the GloSensor™ assay, cells were re-suspended in DMEM supplemented with 2 mM L-glutamine and 10% FCS and seeded at a density of 35000 cells/well on poly-l-lysine treated clear bottomed white walled 96 well plates. Cells were incubated at 37°C 5% CO2 overnight prior to assay.
# (§2) The GloSensor™ assay was carried out as per manufacturer’s instructions (Promega, Madison, WI, USA). […] Agonist concentration response curves were simultaneously obtained (in the absence of antagonist).
# A2AAR [2] = biological target: T2, A2AAR (Homo sapiens, UniProt P29274); assay: GloSensor cAMP luminescence assay in HEK293G cells, endogenous A2AAR-mediated responses (CGS 21680); assay type: cell-based
# T2 construct: We also provide evidence for a minor population of endogenous A2AAR in this cell line; host or cells: HEK293G (HEK293 stably expressing the GloSensor 20F cAMP biosensor)
# Procedure: as §1, §2
# A2BAR [3] = settings: cited from earlier work
# A2AAR [4] = settings: cited from earlier work
# adenylyl cyclase = assay: Forskolin-stimulated GloSensor cAMP luminescence in HEK293G cells; assay type: cell-based, human; settings: forskolin concentration-response curves, PSB 603 up to 300 nM
# Procedure: The cAMP GloSensor™ (20F) biosensor [26] expressed in HEK293 (HEK293G) cells was obtained from Promega (Madison, WI). HEK293G cells were maintained in Dulbecco modified eagles medium (DMEM) supplemented with 2 mM L-glutamine, 10% FCS (fetal calf serum) and 200 μg/ml hygromycin B at 37 °C 5% CO2. Once confluent, cells were dislodged from the flask surface by gentle shaking after incubation in 0.25% trypsin and cell pellet formed following 5 min 1000 g centrifugation. For the GloSensor™ assay, cells were re-suspended in DMEM supplemented with 2 mM L-glutamine and 10% FCS and seeded at a density of 35000 cells/well on poly-l-lysine treated clear bottomed white walled 96 well plates. Cells were incubated at 37°C 5% CO2 overnight prior to assay.
# The GloSensor™ assay was carried out as per manufacturer’s instructions (Promega, Madison, WI, USA).
# [5] = antagonism of BAY 60-6583 (1 µM) response, HEK293G
# [6] = antagonism of NECA (10 µM) response, HEK293G
# [7] = antagonism of adenosine (10 µM) response, HEK293G
# T2 sequence (P29274 whole entry): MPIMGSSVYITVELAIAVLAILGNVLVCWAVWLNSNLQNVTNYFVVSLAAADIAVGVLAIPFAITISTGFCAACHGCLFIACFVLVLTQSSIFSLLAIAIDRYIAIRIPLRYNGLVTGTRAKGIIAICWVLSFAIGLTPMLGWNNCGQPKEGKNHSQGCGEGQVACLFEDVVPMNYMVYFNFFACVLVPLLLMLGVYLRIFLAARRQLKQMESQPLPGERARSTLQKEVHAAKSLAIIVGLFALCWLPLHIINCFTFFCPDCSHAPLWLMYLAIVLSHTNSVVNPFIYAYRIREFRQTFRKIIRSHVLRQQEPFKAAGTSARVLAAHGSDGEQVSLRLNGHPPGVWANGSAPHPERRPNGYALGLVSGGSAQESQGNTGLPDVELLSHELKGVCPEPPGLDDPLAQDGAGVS
smiles,measurement,setting,value
"Nc1nc2c(cnn2CCc2ccccc2)c2nc(-c3ccco3)nn12 [SCH 58261, 2-(2-Furanyl)-7-(2-phenylethyl)-7H-pyrazolo [4,3-e][1,2,4] triazolo[1,5-c]pyrimidin-5-amine]",antagonism of the response to BAY 60-6583 (in words),A2BAR [1],weak antagonist
same,inhibition of the response to 10 µM NECA (in words),A2BAR [1],failed to inhibit
same,inhibition of the adenosine response,"A2BAR [1]; highest concentration tested, not statistically significant",approximately 35%
same,antagonism of the CGS 21680 response (in words),A2AAR [2],complete concentration-dependent antagonism
same,Ki,A2BAR [3],5010 nM
CCCn1c(=O)[nH]c2nc(-c3ccc(S(=O)(=O)N4CCN(c5ccc(Cl)cc5)CC4)cc3)[nH]c2c1=O [PSB 603],antagonism of the response to BAY 60-6583 (in words),A2BAR [1],completely abolish the response
same,maximal inhibition of the NECA response,"A2BAR [1]; 10 µM NECA, % of the maximal response to NECA",81.7 ± 2.4% and 80%
same,inhibition of the response to 10 µM adenosine,A2BAR [1]; 10 µM antagonist,80.5 ± 3.0% and 80%
same,mode of antagonism (in words),A2BAR [1],non-competitive antagonism
same,IC50,A2BAR [1]; [5],17.4 nM
same,pIC50,A2BAR [1]; [5],7.86 ± 0.13
same,IC50,A2BAR [1]; [6],49.8 nM
same,pIC50,A2BAR [1]; [6],7.53 ± 0.22
same,IC50,A2BAR [1]; [7],141 nM
same,pIC50,A2BAR [1]; [7],7.56 ± 0.43
same,-Log KB,A2BAR [1]; agonist BAY 60-6583 (1 µM),8.55 ± 0.13
same,Kb,A2BAR [1]; agonist BAY 60-6583 (1 µM),3.6 nM
same,-Log KB,A2BAR [1]; agonist NECA (10 µM),8.50 ± 0.22
same,Kb,A2BAR [1]; agonist NECA (10 µM),5.3 nM
same,-Log KB,A2BAR [1]; agonist adenosine (10 µM),7.89 ± 0.43
same,Kb,A2BAR [1]; agonist adenosine (10 µM),66.3 nM
same,residual peak response to NECA,"A2BAR [1]; limiting level of antagonism, kinetic profile, 10 μM NECA",circa 20%
same,Ki,A2AAR [4],> 10 µM
same,antagonism of the CGS 21680 response (in words),"A2AAR [2]; 1 μM CGS 21680, competition curves",unable to inhibit; also recorded: not affected
same,effect of pre-incubation on CGS 21680 concentration-response curves (in words),A2AAR [2]; PSB 603 up to 300 nM,did not affect; also recorded: completely unaffected
same,Ki,A2BAR [3],0.5 nM
same,effect of pre-incubation on the response to forskolin (in words),adenylyl cyclase,did not affect; also recorded: completely unaffected
"N#Cc1c(N)nc(SCC(N)=O)c(C#N)c1-c1ccc(OCC2CC2)cc1 [BAY 60-6583, 2-[[6-Amino-3,5-dicyano-4-[4-(cyclopropylmethoxy)phenyl]-2-pyridinyl]thio]-acetamide]",EC50,"A2BAR [1]; BAY 60-6583 pEC50, PSB 603 0 nM",407 nM
same,EC50,"A2BAR [1]; BAY 60-6583 pEC50, PSB 603 30 nM",1580 nM
same,EC50,"A2BAR [1]; BAY 60-6583 pEC50, PSB 603 100 nM",4570 nM
same,EC50,"A2BAR [1]; BAY 60-6583 pEC50, PSB 603 300 nM",> 30000 nM
same,EC50,"A2BAR [1]; BAY 60-6583 pEC50, XAC 0 nM",380 nM
same,EC50,"A2BAR [1]; BAY 60-6583 pEC50, XAC 100 nM",1320 nM
same,EC50,"A2BAR [1]; BAY 60-6583 pEC50, XAC 300 nM",2240 nM
same,EC50,"A2BAR [1]; BAY 60-6583 pEC50, XAC 1000 nM",9330 nM
same,EC50,"A2BAR [1]; BAY 60-6583 pEC50, ZM 241385 0 nM",347 nM
same,EC50,"A2BAR [1]; BAY 60-6583 pEC50, ZM 241385 100 nM",1410 nM
same,EC50,"A2BAR [1]; BAY 60-6583 pEC50, ZM 241385 300 nM",2140 nM
same,EC50,"A2BAR [1]; BAY 60-6583 pEC50, ZM 241385 1000 nM",7240 nM
same,Emax at 0.03 µM,"A2BAR [1]; HEK293G, read-out: BAY 60-6583 Emax, PSB 603 30 nM, percentage of response to 10 µM BAY 60-6583",82.2 ± 1.64%
same,Emax at 0.1 µM,"A2BAR [1]; HEK293G, read-out: BAY 60-6583 Emax, PSB 603 100 nM, percentage of response to 10 µM BAY 60-6583",68.7 ± 6.78%
same,Emax at 0.3 µM,"A2BAR [1]; HEK293G, read-out: BAY 60-6583 Emax, PSB 603 300 nM, percentage of response to 10 µM BAY 60-6583",99.3 ± 26.6%
same,Emax,"A2BAR [1]; HEK293G, read-out: BAY 60-6583 Emax, XAC 0 nM, percentage of response to 10 μM BAY 60-6583",104 ± 5.27%
same,Emax,"A2BAR [1]; HEK293G, read-out: BAY 60-6583 Emax, XAC 100 nM, percentage of response to 10 μM BAY 60-6583",96.6 ± 4.8%
same,Emax,"A2BAR [1]; HEK293G, read-out: BAY 60-6583 Emax, XAC 300 nM, percentage of response to 10 μM BAY 60-6583",85.6 ± 5.04%
same,Emax,"A2BAR [1]; HEK293G, read-out: BAY 60-6583 Emax, XAC 1000 nM, percentage of response to 10 μM BAY 60-6583",55.9 ± 7.86%
same,Emax at 0.1 µM,"A2BAR [1]; HEK293G, read-out: BAY 60-6583 Emax, ZM 241385 100 nM, percentage of response to 10 μM BAY 60-6583",99 ± 7.14%
same,Emax at 0.3 µM,"A2BAR [1]; HEK293G, read-out: BAY 60-6583 Emax, ZM 241385 300 nM, percentage of response to 10 μM BAY 60-6583",80.8 ± 8.36%
same,Emax at 1 µM,"A2BAR [1]; HEK293G, read-out: BAY 60-6583 Emax, ZM 241385 1000 nM, percentage of response to 10 μM BAY 60-6583",54.1 ± 8.41%
same,BAY 60-6583 Emax,"A2BAR [1]; PSB 603 0 nM, percentage of response to 10 µM BAY 60-6583",104.40 ± 5.14%
same,BAY 60-6583 Emax,"A2BAR [1]; ZM 241385 0 nM, percentage of response to 10 μM BAY 60-6583",100.80 ± 4.61%
same,EC50,"A2BAR [1]; agonist pEC50, cAMP Glosensor luminescence, peak luminescence, HEK 293 cells, no antagonist (Fig. 4)",646 nM
same,agonist efficacy (in words),"A2BAR [1]; relative to adenosine and NECA, HEK293G",partial agonist
"Nc1nc(NCCc2ccc(O)cc2)nc2nc(-c3ccco3)nn12 [ZM 241385, 4-(2-[7-Amino-2-(2-furyl)[1,2,4]triazolo[2,3-a][1,3,5]triazin-5-ylamino]ethyl)phenol]",inhibition of the response to 10 µM NECA (in words),A2BAR [1],complete inhibition
same,mode of antagonism (in words),A2BAR [1],competitive interaction
